In patent US20070021495A1, “SULFONAMIDES AS SELECTIVE ESTROGEN RECEPTOR” (priority 2005, published 2007):
Entries after “also recorded” stand apart in the source; their conditions may differ. Read-outs that look alike come from different tables or passages of the source.

Tests used:
[1] = system: ovariectomized mice; details: cited from earlier work
[2] = biological target: T1, purified full-length human ERalpha (Homo sapiens, UniProt P03372); experiment: Competitive radiometric binding assay, relative binding affinity (RBA), ERalpha; details: normalized to estradiol set at 100%; [3H]estradiol 10 nM tracer, 18-24 h at 0° C
T1 construct: purified full-length human ERalpha and ERbeta receptors purchased from Pan Vera (Madison, Wis.); purchased Pan Vera (Madison, Wis.)
T1 sequence (P03372 1-595): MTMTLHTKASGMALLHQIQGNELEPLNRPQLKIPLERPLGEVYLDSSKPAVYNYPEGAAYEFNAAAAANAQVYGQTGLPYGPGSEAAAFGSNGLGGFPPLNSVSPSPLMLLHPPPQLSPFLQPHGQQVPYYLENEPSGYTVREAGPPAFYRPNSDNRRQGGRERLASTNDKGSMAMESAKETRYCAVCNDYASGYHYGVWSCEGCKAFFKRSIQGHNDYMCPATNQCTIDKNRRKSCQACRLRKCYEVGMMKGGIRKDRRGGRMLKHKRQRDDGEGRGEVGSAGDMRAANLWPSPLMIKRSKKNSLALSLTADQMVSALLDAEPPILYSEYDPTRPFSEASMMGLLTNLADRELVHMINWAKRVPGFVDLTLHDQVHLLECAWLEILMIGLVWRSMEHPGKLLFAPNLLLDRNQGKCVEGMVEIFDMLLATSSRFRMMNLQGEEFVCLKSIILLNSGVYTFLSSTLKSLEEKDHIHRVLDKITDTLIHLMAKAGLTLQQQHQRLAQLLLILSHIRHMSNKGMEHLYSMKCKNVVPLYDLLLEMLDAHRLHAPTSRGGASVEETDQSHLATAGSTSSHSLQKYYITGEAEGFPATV
Experimental: Incubations were for 18-24 h at 0° C. Hydroxyapatite (BioRad, Hercules, Calif.) was used to absorb the receptor-ligand complexes and free ligand was washed away. […] The values given are the average±range or SD of two to three independent determinations.

[3] = biological target: T2, purified full-length human ERbeta (Homo sapiens, UniProt Q92731); experiment: Competitive radiometric binding assay, relative binding affinity (RBA), ERbeta; details: for Relative binding affinity (RBA) ERβ: normalized to estradiol set at 100%, [3H]estradiol 10 nM tracer, 18-24 h at 0° C; for ERβ/ERα (ratio of RBAs): ratio of RBA ERβ to RBA ERα; for ER beta selectivity: binding selectivity ER beta over ER alpha
T2 construct: purified full-length human ERalpha and ERbeta receptors purchased from Pan Vera (Madison, Wis.); purchased Pan Vera (Madison, Wis.)
T2 sequence (Q92731 whole entry): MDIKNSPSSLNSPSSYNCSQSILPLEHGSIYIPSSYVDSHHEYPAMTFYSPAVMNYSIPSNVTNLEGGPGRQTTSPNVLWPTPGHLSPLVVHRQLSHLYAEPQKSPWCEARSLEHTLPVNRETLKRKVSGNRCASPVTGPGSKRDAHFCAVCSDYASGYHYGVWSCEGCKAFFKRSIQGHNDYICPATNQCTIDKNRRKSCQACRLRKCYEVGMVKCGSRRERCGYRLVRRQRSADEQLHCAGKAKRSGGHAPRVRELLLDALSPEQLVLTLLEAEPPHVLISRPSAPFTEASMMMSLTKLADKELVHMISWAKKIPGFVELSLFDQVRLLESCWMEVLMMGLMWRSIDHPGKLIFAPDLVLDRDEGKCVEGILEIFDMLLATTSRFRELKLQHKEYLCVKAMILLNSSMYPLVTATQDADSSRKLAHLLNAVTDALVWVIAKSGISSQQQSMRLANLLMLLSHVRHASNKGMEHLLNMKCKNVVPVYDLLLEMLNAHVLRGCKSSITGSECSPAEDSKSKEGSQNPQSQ
Excerpt: The relative binding affinities (RBAs) of potential ER ligands can be measured using purified full length human ERalpha and ERbeta receptors in a competitive radiometric binding assay, according to published procedures (Carlson, K. E.; Choi, I.; Gee, A,; Katzenellenbogen, B. S.; Katzenellenbogen, J. A. Altered ligand binding properties and enhanced stability of a constitutively active estrogen receptor: evidence that an open pocket conformation is required for ligand interaction. Biochemistry 1997, 36, 14897-14905; Katzenellenbogen, J. A.; Johnson, H. J., Jr.; Myers, H. N. Photoaffinity labels for estrogen binding proteins of rat uterus. Biochemistry 1973, 12, 4085-4092) as described in the Examples.
Relative binding affinities reported herein were determined by a competitive radiometric binding assay as previously described (Carlson, K. E.; Choi, I.; Gee, A.; Katzenellenbogen, B. S.; Katzenellenbogen, J. A. Altered ligand binding properties and enhanced stability of a constitutively active estrogen receptor: evidence that an open pocket conformation is required for ligand interaction. Biochemistry 1997, 36, 14897-14905; Katzenellenbogen, J. A.; Johnson, H. J., Jr.; Myers, H. N. Photoaffinity labels for estrogen binding proteins of rat uterus. Biochemistry 1973, 12, 4085-4092.) [3H]estradiol (10 nM) was used as tracer ([6,7-3H]estra-1,3,5,(10)triene-3,17-β-diol, 51-53 Ci/mmol, Amersham Biosciences, Piscataway, N.J.), and purified full-length human ERalpha and ERbeta receptors purchased from Pan Vera (Madison, Wis.). Incubations were for 18-24 h at 0° C. Hydroxyapatite (BioRad, Hercules, Calif.) was used to absorb the receptor-ligand complexes and free ligand was washed away. The binding affinities are expressed as relative binding affinity (RBA) values with the RBA of estradiol set to 100%. The values given are the average±range or SD of two to three independent determinations. […]

[4] = system: U2-OS cells stably expressing either ERα or ERβ; experiment: Endogenous gene expression (cystatin D, GREB1 mRNA, quantitative PCR) in U2-OS cells stably expressing ERα or ERβ; details: 24 hours, mRNA by quantitative PCR
Experimental: Expression levels of cystatin D (A and B) or of GREB1 (C and D) mRNA were determined by quantitative PCR methods.
More specifically real-time PCR was carried out on the indicated genes to evaluate mRNA levels of ER alpha or ER beta in U2-OS stably transfected cells. […] One microgram of total RNA from each sample was reverse transcribed in a total volume of 20 μl using 200 U reverse transcriptase, 50 pmol random hexamers, and 1 mM deoxynucleotide triphosphates (New England Biolabs, Beverly, Mass.). The resulting cDNA was then diluted to a total volume of 100 μl. Each real-time PCR consisted of 5 μl of diluted reverse transcription product, 1× SYBR Green PCR Master Mix (Applied Biosystems, Foster City, Calif.), and 50 nM of forward and reverse primers. Reactions were carried out in an ABI Prism 7700 Sequence Detection System (Applied Biosystems) for 40 cycles (95 C for 15 sec, 60 C for 1 min) after an initial 10-min incubation at 95 C. The FC in expression was calculated using the DDCt comparative threshold cycle method with the ribosomal protein 36B4 mRNA as an internal control. Gene expression is normalized to an endogenous reference gene (36B4) and the FC in gene expression is then determined relative to the vehicle-treated control.

[5] = biological target: T3, ERα (Homo sapiens, UniProt P03372); experiment: Antagonism of estrogen-induced 2x-pS2-ERE-Luc reporter expression in HEC-1 cells transfected with ERα; details: ligand + E2 at 1 nM, 24 hours, luciferase, pS2 promoter
T3 sequence (P03372 1-595): T1 sequence (P03372 1-595)
Experimental: (§1) Values are expressed as % of E2 activity at 1 nM and are the mean of duplicate determinations.
(§2) The data presented was measured using a reporter gene under the control of the pS2 promoter. […] Human endometrial cancer (HEC-1) cells were maintained in minimum essential medium (MEM) plus phenol red supplemented with 5% calf serum and 5% fetal calf serum. […] The cells were incubated at 37° C. in a 5% CO2-containing incubator for 5 h. The medium was then replaced with fresh improved MEM supplemented with 5% CDCS plus the desired concentrations of ligand. Cells were harvested 24 h later.

[6] = biological target: ERβ (Homo sapiens, UniProt Q92731); experiment: Antagonism of estrogen-induced 2x-pS2-ERE-Luc reporter expression in HEC-1 cells transfected with ERβ; details: ligand + E2 at 1 nM, 24 hours, luciferase, pS2 promoter
ERβ, sequence (Q92731 whole entry, species assumed): as the sequence (Q92731 whole entry) above
Experimental: as §1, §2

[7] = system: Candida albicans; details: cited from earlier work

| SMILES | Relative binding affinity (RBA) ERα [2] | Relative binding affinity (RBA) ERβ [3] | ERβ/ERα (ratio of RBAs) [3] | further results |
| --- | --- | --- | --- | --- |
| COc1ccc(S(=O)(=O)N(c2ccccc2)c2ccccc2)cc1 [compound VIII] |  |  |  | percentage of animals which responded ([1]; dose 250 micrograms): 60% |
| CCC(CC)N(c1ccc(O)cc1)S(=O)(=O)c1ccc(O)cc1 [Compound 20j, N-(1-Ethyl-propyl)-4-hydroxy-N-(4-hydroxy-phenyl)-benzenesulfonamide] | 0.018% | 0.11% | 6.1 |  |
| O=S(=O)(c1ccc(O)cc1)N(CCC(F)(F)F)c1ccc(O)cc1 [Compound 20l, 4-Hydroxy-N-(4-hydroxy-phenyl)-N-(3,3,3-trifluoro-propyl)benzenesulfonamide] | 0.006% | 1.27% | 212 | Potency in endogenous gene regulation compared to the dose response of estradiol [4]: preferential potency through ERbeta; Regulation of endogenous genes (cystatin D and GREB1) [4]: preferential regulation through ERbeta; ER beta selectivity [3]: 212 fold; Antagonism on estrogen-induced gene expression through ERα ([5]; listed as FS-5): do not act as antagonists; also recorded: lack of antagonism; Antagonism on estrogen-induced gene expression through ERβ ([6]; listed as FS-5): do not act as antagonists; also recorded: lack of antagonism |
| CCCN(c1ccc(O)c(Cl)c1)S(=O)(=O)c1ccc(O)cc1 [Compound 24b, N-(3-Chloro-4-hydroxy-phenyl)-4-hydroxy-N-propyl-benzenesulfonamide] | 0.005% | 0.038% | 7.6 |  |
| CC(C)N(c1ccc(O)cc1)S(=O)(=O)c1ccc(O)cc1 [Compound 20g, N-Isopropyl-4-hydroxy-N-(4-hydroxy-phenyl)-benzenesulfonamide] | 0.012% | 0.22% | 18 |  |
| O=S(=O)(c1ccc(O)cc1)N(CCC(F)(F)F)c1ccc(O)c(F)c1 [Compound 28a, N-(3-Fluoro-4-hydroxy-phenyl)-4-hydroxy-N-(3,3,3-trifluoro-propyl)-benzenesulfonamide] | 0.009% | 0.178% | 20 |  |
| CCC(C)N(c1ccc(O)cc1)S(=O)(=O)c1ccc(O)cc1 (racemic) [Compound 20h (Racemic), N-sec-Butyl-4-hydroxy-N-(4-hydroxy-phenyl)-benzenesulfonamide] | 0.006% | 0.97% | 162 | ER beta selectivity [3]: 162 fold |
| CCN(c1ccc(O)cc1)S(=O)(=O)c1ccc(O)cc1 [Compound 20b, N-Ethyl-4-hydroxy-N-(4-hydroxy-phenyl)-benzenesulfonamide] | 0.007% | 0.28% | 40 |  |
| CCCC(C)N(c1ccc(O)cc1)S(=O)(=O)c1ccc(O)cc1 (centres unmarked) [Compound 20i, 4-Hydroxy-N-(4-hydroxy-phenyl)-N-(1-methyl-butyl)-benzenesulfonamide] | 0.013% | 1.3% | 100 |  |
| COc1ccc(NS(=O)(=O)c2ccc(OC)cc2)cc1 [compound II, p-methoxybenzenesulfon-p-anisidide] |  |  |  | percentage of animals which responded ([1]; dose 50 micrograms): 100%; Activity against Candida albicans [7]: some activity |
| O=S(=O)(c1ccc(O)cc1)N(CCC(F)(F)F)c1ccc(O)c(Cl)c1 [Compound 28b, N-(3-Chloro-4-hydroxy-phenyl)-4-hydroxy-N-(3,3,3-trifluoro-propyl)-benzenesulfonamide] | 0.003% | 0.023% | 7.7 |  |
| CCCN(c1ccc(O)c(F)c1)S(=O)(=O)c1ccc(O)cc1 [Compound 24a, N-(3-Fluoro-4-hydroxy-phenyl)-4-hydroxy-N-propyl-benzenesulfonamide] | 0.011% | 0.254% | 23 |  |
| O=S(=O)(c1ccc(O)cc1)N(CC(F)(F)F)c1ccc(O)cc1 [Compound 20k, 4-Hydroxy-N-(4-hydroxy-phenyl)-N-(2,2,2-trifluoro-ethyl)-benzenesulfonamide] | 0.020% | 0.17% | 8.5 |  |
| CC(C)CN(c1ccc(O)cc1)S(=O)(=O)c1ccc(O)cc1 [Compound 20e, N-Isobutyl-4-hydroxy-N-(4-hydroxy-phenyl)-benzenesulfonamide] | 0.013% | 0.14% | 11 |  |
| CCCN(c1ccc(O)cc1)S(=O)(=O)c1ccc(O)cc1 [Compound 20c, 4-Hydroxy-N-(4-hydroxy-phenyl)-N-propyl-benzenesulfonamide] | 0.026% | 2.56% | 98 | Potency in endogenous gene regulation compared to the dose response of estradiol [4]: preferential potency through ERbeta; Regulation of endogenous genes (cystatin D and GREB1) [4]: preferential regulation through ERbeta; ER beta selectivity [3]: 98 fold; Antagonism on estrogen-induced gene expression through ERα ([5]; listed as FS-2): do not act as antagonists; also recorded: lack of antagonism; Antagonism on estrogen-induced gene expression through ERβ ([6]; listed as FS-2): do not act as antagonists; also recorded: lack of antagonism |
| CCCCCN(c1ccc(O)cc1)S(=O)(=O)c1ccc(O)cc1 [Compound 20f, 4-Hydroxy-N-(4-hydroxy-phenyl)-N-pentyl-benzenesulfonamide] | 0.047% | 0.60% | 13 |  |
| CCCCN(c1ccc(O)cc1)S(=O)(=O)c1ccc(O)cc1 [Compound 20d, N-Butyl-4-hydroxy-N-(4-hydroxy-phenyl)-benzenesulfonamide] | 0.023% | 1.15% | 50 |  |
| CN(c1ccc(O)cc1)S(=O)(=O)c1ccc(O)cc1 [Compound 20a, 4-Hydroxy-N-(4-hydroxy-phenyl)-N-methyl-benzenesulfonamide] | 0.009% | 0.058% | 6.4 |  |
